One data set deals with Salmonella typhimurium. As to the kind of experiment: Mutagenicity in Salmonella typhimurium TA1537 by Ames test. Type of data set: toxicity, organism-based. The note with it: salmonella enterica subsp. enterica serovar typhimurium. On the technique in general: The Ames test uses bacterial strains that need an amino acid and regain growth without it when mutated back.
The subject of data set [1] is M14. Description: Cytotoxicity against paclitaxel resistant human M14 cells measured after 72 hrs […]. Type of data set: functional, cell-based. Conditions: M14, 72 h.
In another data set the target is CYP2C9 (Homo sapiens, UniProt P11712). Description: Inhibition of CYP2C9 in human liver microsomes using diclofenac as substrate at 10 uM. Type of data set: ADME. The note with it: probe diclofenac.
The next data set deals with RPMI-7951. As to the kind of experiment: Antiproliferative activity against human RPMI-7951 cells assessed as cell growth inhibition incubated for 72 hrs by MTS assay. Type of data set: functional, cell-based. The note with it: RPMI-7951, 72 h. In general terms: Tetrazolium dyes change colour on reduction, which living cells bring about.
The target of another data set is hERG (KCNH2) (Homo sapiens, UniProt Q12809). As to the kind of experiment: Inhibition of human ERG at 10 uM.
A short description of data set [2]: Systemic toxicity in human A375/TxR cells xenografted in SCID mouse tumor model assessed as pathological change in kidney at 10 to 20 mg/kg, ip by H and E staining based analysis. Type of data set: organism-based. The note with it: in vivo, dose 10-20 mg/kg.
Data set [3] is described as follows: Antitumor activity against human A375/TxR cells xenografted in SCID mouse assessed as tumor growth inhibition at 10 mg/kg, ip administered 3 times/week for 18 days. Type of data set: functional. The note with it: time 18 day. The arrangement: scale not given: the % may be the effect or the level left. In general terms: Xenograft models place foreign cells or tissue in a host animal.

The next data set has as its target T1, CYP2B6 (Homo sapiens, UniProt P20813).
T1 sequence (P20813 whole entry): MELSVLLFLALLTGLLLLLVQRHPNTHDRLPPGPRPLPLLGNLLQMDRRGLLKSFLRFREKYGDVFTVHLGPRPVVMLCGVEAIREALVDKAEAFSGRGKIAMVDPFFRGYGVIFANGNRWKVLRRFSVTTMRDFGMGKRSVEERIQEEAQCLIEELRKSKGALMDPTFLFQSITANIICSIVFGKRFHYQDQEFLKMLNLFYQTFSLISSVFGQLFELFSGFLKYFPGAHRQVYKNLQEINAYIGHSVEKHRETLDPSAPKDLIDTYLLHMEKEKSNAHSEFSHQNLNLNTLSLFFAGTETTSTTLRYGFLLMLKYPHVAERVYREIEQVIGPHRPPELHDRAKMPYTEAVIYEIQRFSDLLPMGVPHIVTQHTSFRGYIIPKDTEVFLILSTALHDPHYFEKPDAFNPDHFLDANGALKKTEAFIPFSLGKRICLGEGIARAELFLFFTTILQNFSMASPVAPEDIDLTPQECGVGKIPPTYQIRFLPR
Description: Inhibition of CYP2B6 in human liver microsomes using bupropion as substrate at 10 uM. Type of data set: ADME. Conditions: probe bupropion.

The nature of data set [4]: Antitumor activity against human A375/TxR cells xenografted in SCID mouse assessed as reduction in tumor volume at 20 mg/kg, ip administered 3 times/week for 18 days. Type of data set: functional. The arrangement: scale not given: the % may be the effect or the level left. Conditions: time 18 day.
In data set [5] the target is T2, CYP1A2 (description prints CYP1AA) (Homo sapiens, UniProt P05177).
T2 sequence (P05177 whole entry): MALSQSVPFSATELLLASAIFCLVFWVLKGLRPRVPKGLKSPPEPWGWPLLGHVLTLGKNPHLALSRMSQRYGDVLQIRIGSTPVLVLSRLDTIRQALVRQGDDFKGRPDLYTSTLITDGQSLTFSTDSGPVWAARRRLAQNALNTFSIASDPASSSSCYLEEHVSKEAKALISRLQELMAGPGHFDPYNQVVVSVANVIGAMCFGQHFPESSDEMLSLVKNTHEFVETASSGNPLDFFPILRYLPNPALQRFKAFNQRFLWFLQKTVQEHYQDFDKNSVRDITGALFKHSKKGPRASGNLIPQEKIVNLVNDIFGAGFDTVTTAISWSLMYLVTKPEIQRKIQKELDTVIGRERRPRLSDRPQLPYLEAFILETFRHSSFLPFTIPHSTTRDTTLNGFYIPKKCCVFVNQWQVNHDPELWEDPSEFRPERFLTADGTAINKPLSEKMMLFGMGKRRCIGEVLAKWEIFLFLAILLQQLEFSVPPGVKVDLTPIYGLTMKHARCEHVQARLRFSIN
Description: Inhibition of […] in human liver microsomes using phenacetin as substrate at 10 uM. Type of data set: ADME. Conditions: probe phenacetin.

Data set [6] in a line: Metabolic stability in human liver microsomes assessed as half life in presence of NADPH regenerating system by UPLC-MS analysis. Type of data set: ADME, Microsome. Conditions: microsomes.
Data set [7] can be described thus: Aqueous solubility of compound in pH 7.4 PBS buffer. Type of data set: physicochemical.
Data set [8] is described as follows: Induction of apoptosis in human A375/TxR cells assessed as apoptotic cells at 2.5 nM measured for 24 hrs by annexin VFITC /PI staining based analysis (reference value: […]). Type of data set: functional.
Data set [9] deals with M14. As to the kind of experiment: Cytotoxicity against human M14 cells measured after 72 hrs […]. Type of data set: functional, cell-based. Conditions: M14, 72 h.
Data set [10] can be described thus: Half life in NSG mouse at 10 mg/kg, ip. Type of data set: ADME, organism-based. Conditions: in vivo.
The nature of data set [11]: Metabolic stability in mouse liver microsomes assessed as intrinsic clearance in presence of NADPH regenerating system by UPLC-MS analysis. The note with it: read-out: CLH. Type of data set: ADME, Microsome.
The test system of the next data set is A375/TxR. Description: Induction of cell cycle arrest in human A375/TxR cells assessed as decrease in accumulation at G1 phase measured for 24 hrs by PI staining based flow cytometry analysis. Type of data set: functional.
Data set [12] is described as follows: Antitumor activity against human A375/TxR cells xenografted in SCID mouse assessed as reduction in tumor volume at 10 mg/kg, ip administered 3 times/week for 18 days. Type of data set: functional. The arrangement: scale not given: the % may be the effect or the level left. Conditions: time 18 day.
The nature of data set [13]: Metabolic stability in human liver microsomes assessed as intrinsic clearance in presence of NADPH regenerating system by UPLC-MS analysis. Type of data set: ADME, Microsome. The note with it: read-out: CLH.
The nature of data set [14]: Cytotoxicity against paclitaxel resistant human A-375/TxR cells measured after 72 hrs […]. Conditions: A375/TxR. Type of data set: functional, cell-based.
Data set [15] in a line: Systemic toxicity in human A375/TxR cells xenografted in SCID mouse tumor model assessed as pathological change in spleen at 10 to 20 mg/kg, ip by H and E staining based analysis. Type of data set: organism-based. The note with it: in vivo, dose 10-20 mg/kg.
Data set [16] is described as follows: Cmax in NSG mouse at 10 mg/kg, ip. Conditions: in vivo. The arrangement: route intraperitoneal, dose 10 mg/kg. Type of data set: ADME, organism-based.

The structures appear in SMILES notation. ≈ marks a conversion by molar mass, not a printed value.

Sequence of hERG (KCNH2) (Q12809 whole entry): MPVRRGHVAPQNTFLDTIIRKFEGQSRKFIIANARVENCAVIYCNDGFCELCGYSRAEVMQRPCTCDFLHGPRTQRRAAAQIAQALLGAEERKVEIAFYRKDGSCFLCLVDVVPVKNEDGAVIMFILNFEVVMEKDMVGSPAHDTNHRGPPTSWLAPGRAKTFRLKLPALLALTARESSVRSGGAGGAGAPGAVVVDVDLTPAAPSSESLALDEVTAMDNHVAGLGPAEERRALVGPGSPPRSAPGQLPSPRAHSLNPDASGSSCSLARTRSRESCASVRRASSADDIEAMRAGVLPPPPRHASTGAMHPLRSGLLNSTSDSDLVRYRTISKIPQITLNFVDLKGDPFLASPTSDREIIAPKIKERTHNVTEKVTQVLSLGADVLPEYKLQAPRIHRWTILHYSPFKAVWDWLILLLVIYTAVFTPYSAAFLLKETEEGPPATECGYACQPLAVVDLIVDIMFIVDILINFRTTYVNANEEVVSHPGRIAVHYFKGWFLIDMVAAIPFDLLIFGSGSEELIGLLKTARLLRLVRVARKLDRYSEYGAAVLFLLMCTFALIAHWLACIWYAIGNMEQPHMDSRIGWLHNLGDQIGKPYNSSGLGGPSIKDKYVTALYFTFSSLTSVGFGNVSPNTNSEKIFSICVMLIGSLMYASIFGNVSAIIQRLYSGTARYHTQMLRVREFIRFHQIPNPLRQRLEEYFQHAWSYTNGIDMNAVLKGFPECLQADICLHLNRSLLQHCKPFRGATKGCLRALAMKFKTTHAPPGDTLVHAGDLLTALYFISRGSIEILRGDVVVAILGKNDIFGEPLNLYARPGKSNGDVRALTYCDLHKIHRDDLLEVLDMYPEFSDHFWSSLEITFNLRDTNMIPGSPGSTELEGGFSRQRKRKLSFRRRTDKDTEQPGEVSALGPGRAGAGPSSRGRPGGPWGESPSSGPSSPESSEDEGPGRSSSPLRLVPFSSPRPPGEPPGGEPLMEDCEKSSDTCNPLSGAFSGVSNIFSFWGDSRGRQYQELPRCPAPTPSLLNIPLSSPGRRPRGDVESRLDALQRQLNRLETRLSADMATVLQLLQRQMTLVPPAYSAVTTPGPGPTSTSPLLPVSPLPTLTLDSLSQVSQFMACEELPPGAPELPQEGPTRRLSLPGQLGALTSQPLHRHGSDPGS
Sequence of CYP2C9 (P11712 whole entry): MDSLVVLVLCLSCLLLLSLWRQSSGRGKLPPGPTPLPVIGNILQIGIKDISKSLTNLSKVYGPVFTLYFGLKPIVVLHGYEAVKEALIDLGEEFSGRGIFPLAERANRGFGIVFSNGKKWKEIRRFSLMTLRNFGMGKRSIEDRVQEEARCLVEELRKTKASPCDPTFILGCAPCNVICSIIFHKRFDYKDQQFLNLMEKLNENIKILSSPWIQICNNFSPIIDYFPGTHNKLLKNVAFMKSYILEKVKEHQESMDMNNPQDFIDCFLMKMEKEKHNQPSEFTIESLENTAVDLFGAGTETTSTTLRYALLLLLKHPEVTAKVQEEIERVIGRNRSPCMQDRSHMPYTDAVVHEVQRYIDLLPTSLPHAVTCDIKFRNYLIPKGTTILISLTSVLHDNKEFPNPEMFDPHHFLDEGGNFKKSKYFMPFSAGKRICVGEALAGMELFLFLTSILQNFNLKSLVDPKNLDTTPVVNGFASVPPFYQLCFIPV

In the case of `COc1cc(C(=O)c2nc(-c3ccc(C)c(O)c3)ccc2F)cc(OC)c1OC`, the Activity result with Salmonella typhimurium was “Non-Toxic”; in [2], “Non-Toxic”; in [3], 44.4%; in [4] it was 72.9%; in [8], 14.5%; in the data set on A375/TxR it was “Dose-Dependent Effect”. In addition, the Activity in data set [12] is 57.6%; in [15] it was “Non-Toxic”. The 50% inhibitory concentration (IC50) (commonly the concentration at which inhibition is half-maximal) in the data set on M14 [1] was determined as 4.9 nM; with RPMI-7951, 2.4 nM; with M14 [9], 2.8 nM; in data set [14] it was 5.3 nM. In addition, the inhibition (usually the relative decrease from the control value, in per cent) at 10 µM on CYP2C9 is 54.7%; on hERG (KCNH2) it was 5.14%; against CYP2B6, 12%; in data set [5] it was 50.9%. Besides, in data set [6], the t1/2 amounted to 0.49 h. Besides, the solubility (commonly how much of the substance goes into solution per volume) in [7] turned out to be 0.1 µM (≈ 0.0397 µg/mL). In addition, the half-life (usually how long it takes for the measured level to halve) in data set [10] is 4.39 h. Also, the results for the CLint scaled in [11] and in [13] were 4.6 mL/min/kg and 42.3 mL/min/kg, respectively. Further, the peak level in data set [16] (Cmax) was 6210 ng/mL.

(Values after ChEMBL document CHEMBL5029155, “Design, Synthesis, and Biological Evaluation of Stable Colchicine-Binding Site Tubulin Inhibitors 6-Aryl-2-benzoyl-pyridines as Potential Anticancer Agents” (J Med Chem, 2021).)
